Legend:
[1] = system: inflammation, fibrosis and FXR target genes in liver; test: Liver mRNA levels by qPCR in BDL mice; format: in vivo
FXR = molecular target: T1, FXR (Homo sapiens, UniProt Q96RI1); test: AlphaScreen corepressor NCoR-2 recruitment assay; format: biochemical; settings: Figure 1I
T1 sequence (Q96RI1 243-472 isoform Q96RI1-2): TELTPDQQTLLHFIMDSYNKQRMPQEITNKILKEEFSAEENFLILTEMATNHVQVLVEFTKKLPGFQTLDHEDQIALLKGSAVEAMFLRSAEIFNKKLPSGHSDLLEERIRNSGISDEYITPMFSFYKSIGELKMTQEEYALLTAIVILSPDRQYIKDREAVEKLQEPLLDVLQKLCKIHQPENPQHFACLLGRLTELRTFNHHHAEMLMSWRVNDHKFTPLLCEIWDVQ

[2] = system: BDL-induced liver injury in mice; test: Bile duct ligation; format: in vivo
[3] = 3 mg/kg p.o. once daily day 7 to 14 after BDL

- binding affinity between FXR and NCoR2 (FXR): decreased the binding affinity
SMILES: CC[C@H]1[C@@H](O)[C@@H]2[C@H](CC[C@]3(C)[C@@H]([C@H](C)CCC(=O)O)CC[C@@H]23)[C@@]2(C)CC[C@@H](O)C[C@@H]12 [OCA, Obeticholic acid]
- liver mRNA expression of inflammatory biomarkers IL-6, IL-1β, iNOS, COX2 [1]: significantly decreased
- collagen deposition (Sirius red) compared to the vehicle group [2, 3]: smaller amount
- inflammatory infiltrates (H&E) compared to the vehicle group [2, 3]: lower level
- BDL-induced increase in total bilirubin level in the serum ([2]; once daily day 7 to 14 after BDL): reversed
